Like-named read-outs stand apart in the source and are kept apart here. Each block holds one compound with its values, some of them ahead of it.
Key:
[1] = OMEGA-3 Phase IIa study: adverse events and laboratory safety; type: in vivo, human (Japanese patients); details: given as part of JNJ-4178
Text: The study comprised a 6-week screening phase, an 8-week (Cohort 1: patients with no cirrhosis) or 12-week (Cohort 2: patients with compensated cirrhosis) open-label treatment phase, and a 24-week post-treatment follow-up period. Given that patients with HCV and compensated cirrhosis potentially have a higher safety risk than patients without compensated cirrhosis, dosing of Cohort 2 was only initiated after all safety data had been reviewed up to Week 4 for the first six patients in Cohort 1 by an independent Data Review Committee (Fig. 1). This study was conducted in accordance with the ethical principles that have their origin in the Declaration of Helsinki and that are consistent with Good Clinical Practices and applicable regulatory requirements. The study was approved by the relevant Institutional Review Board at each study center. All patients provided written, informed consent to participate.
Study drugs were administered orally with food at approximately the same time in the morning, each day.
(§1) The primary endpoint was safety, including but not limited to AEs, physical examination, vital signs, 12-lead ECGs, echocardiograms, and clinical laboratory results.
(§2) AEs were reported throughout the study from the time that informed consent to participate was received until completion of the last visit. Complete physical examination, vital signs assessments, and blood and urine sampling for clinical laboratory assessments (including hematological, serum chemistry, liver function, and urinalysis tests) were performed at screening and throughout the study. Triplicate ECGs and echocardiography were also performed at screening and during the study.
The safety analysis was performed on the Safety Set (all patients who received at least one dose of study drug). Safety data were analyzed descriptively. AEs were coded using the Medical Dictionary for Regulatory Activities (version 20.0). Laboratory abnormalities were assessed according to the World Health Organization Toxicity Grading Scale.

[2] = OMEGA-3: plasma pharmacokinetics (sparse sampling and Week 4 intensive sub-study); type: in vivo, human (Japanese patients)
Procedure: Blood samples for the assessment of the plasma pharmacokinetics of adafosbuvir (and its metabolites ALS-022399 and ALS-022227), odalasvir, and simeprevir were collected in all patients pre-dose, between 2 and 4 h post-dose, and between 4 and 6 h post-dose at Weeks 2, 4, 6, and 8 (Cohort 2 only) and EOT (Weeks 8 or 12). An additional plasma sample was taken at any time during the Week-12 follow-up visit for measurement of odalasvir only.
Additional blood samples were also obtained at Week 4 in a subgroup of patients (planned: ≥ 6 patients per cohort) who consented to intensive pharmacokinetic sampling (pharmacokinetic sub-study). Blood samples for adafosbuvir (and its metabolites ALS-022399 and ALS-022227), odalasvir, and simeprevir plasma concentrations were collected pre-dose and at 1, 2, 3, 4, 6, 8, 10, 12, and 24 h post-dose.
Plasma concentrations of adafosbuvir, ALS-022399, ALS-022227, simeprevir, and odalasvir were determined using validated liquid chromatography–mass spectrometry methods. The LLOQ for adafosbuvir and odalasvir was 1.00 ng/mL, for ALS-022399 was 2.00 ng/mL, for ALS-022227 was 5.00 ng/mL, and for simeprevir was 20.0 ng/mL.
Descriptive statistics for plasma concentrations of adafosbuvir (and its metabolites), odalasvir, and simeprevir were calculated at each sampling time point. Pharmacokinetic parameters were derived by non-compartmental pharmacokinetic analysis of adafosbuvir (and its metabolites), odalasvir, and simeprevir in the pharmacokinetic sub-study using actual sampling time points and plasma concentrations obtained during intensive sampling at Week 4. Graphs of the mean plasma concentration–time profiles were produced. An exploratory graphical pharmacokinetic/pharmacodynamic analysis was performed by means of scatter plots of pharmacodynamic parameters (individual PR interval [mean of the triplicate ECG measurements] and change from baseline in PR interval [Day 1 was baseline]) versus odalasvir plasma concentrations.

HCV GTs 1–6 = system: HCV GTs 1–6; set-up: method as in doi:10.1016/S0168-8278(17)31470-8, PMID 30070722, PMID 30325939; details: cited from earlier work
[3] = OMEGA-3: ECG and echocardiography; type: in vivo, human (Japanese patients); details: graphical evaluation
Text: as §1, §2
Descriptive statistics for plasma concentrations of adafosbuvir (and its metabolites), odalasvir, and simeprevir were calculated at each sampling time point. Pharmacokinetic parameters were derived by non-compartmental pharmacokinetic analysis of adafosbuvir (and its metabolites), odalasvir, and simeprevir in the pharmacokinetic sub-study using actual sampling time points and plasma concentrations obtained during intensive sampling at Week 4. Graphs of the mean plasma concentration–time profiles were produced. […]

[4] = set-up: method as in PMID 29736243; details: single-dose pharmacokinetic studies (data on file) ref 24; cited from earlier work
[5] = system: HCV GT1, GT2, GT4, GT5, and GT6; set-up: method as in PMID 30693573, doi:10.1016/S0168-8278(12)60857-5; details: cited from earlier work
HCV GT3 [6] = system: HCV GT3; set-up: method as in PMID 30693573; details: HCV GT3 (data on file); cited from earlier work
[7] = system: HCV GT1, GT2, GT4, GT5, and GT6; set-up: method as in PMID 22326470; details: cited from earlier work
HCV GT3 [8] = system: HCV GT3; set-up: method as in PMID 22326470; details: cited from earlier work
CYP3A = details: cited from earlier work
CYP1A2 = system: CYP1A2; set-up: method as in PMID 26453968; details: cited from earlier work
[9] = Cohort 1: no cirrhosis (N = 22), 8 weeks
[10] = Cohort 2: compensated cirrhosis (N = 11), 12 weeks

SMILES: CC(C)OC(=O)[C@H](C)N[P@](=O)(OC[C@@]1(F)O[C@@H](n2ccc(=O)[nH]c2=O)[C@](C)(O)[C@@H]1O)Oc1ccccc1 [adafosbuvir]
Treatment-related AE at least possibly related to the named drug [1, 9]: 6 (27.3) n (%)
Treatment-related AE at least possibly related to the named drug [1, 10]: 3 (27.3) n (%)
Treatment-related AE at least possibly related to the named drug ([1]; Overall (N = 33)): 9 (27.3) n (%)
Plasma trough concentration (Ctrough) ([2]; all visits, both patient cohorts, LLOQ 1.00 ng/mL adafosbuvir, 2.00 ng/mL ALS-022399): below the limit of quantification
AUC(0-t) ([2]; human, in vivo, plasma, Week 4, intensive sampling, Cohort 2 (n=2), first value listed, read-out: AUC24h, individual value): 3020 ng·h/mL
Cmax ([2]; human, in vivo, plasma, Week 4, intensive sampling, Cohort 2 (n=2), first value listed, read-out: Cmax, individual value): 964 ng/mL
AUC(0-t) ([2]; human, in vivo, plasma, Week 4, intensive sampling, Cohort 2 (n=2), second value listed, read-out: AUC24h, individual value): 3030 ng·h/mL
Cmax ([2]; human, in vivo, plasma, Week 4, intensive sampling, Cohort 2 (n=2), second value listed, read-out: Cmax, individual value): 1430 ng/mL
AUC(0-t) ([2]; human, in vivo, plasma, Week 4, intensive sampling, JNJ-4178 dosing, Cohort 1: no cirrhosis (n=8), read-out: AUC24h, mean (SD)): 1660 ng·h/mL
Cmax ([2]; human, in vivo, plasma, Week 4, intensive sampling, JNJ-4178 dosing, Cohort 1: no cirrhosis (n=8), read-out: Cmax, mean (SD)): 903 ng/mL
Antiviral activity (HCV GTs 1–6): potent antiviral activity

AUC24h, mean (SD) ([2]; human, in vivo): 6688 (3116) ng.h/mL
Cmax, mean (SD) ([2]; human, in vivo): 974 (554) ng/mL
SMILES: C[C@]1(O)[C@H](n2ccc(=O)[nH]c2=O)O[C@](F)(CO)[C@H]1O [ALS-022227]
Steady state judged from Ctrough levels ([2]; in vivo): steady-state exposure had been reached by Week 2

AUC24h, mean (SD) ([2]; human, in vivo): 6320 (1898) ng.h/mL
Cmax, mean (SD) ([2]; human, in vivo): 342 (113) ng/mL
Maximum Cmax among pharmacokinetic sub-study patients ([2]; human, in vivo): 546 ng/mL
Ctrough levels in Cohort 2 compared with Cohort 1 ([2]; in vivo): modestly lower
Highest pre-dose concentration among patients ([2]; in vivo): 474 to 889 ng/mL
SMILES: COC(=O)N[C@H](C(=O)N1[C@H](c2nc3cc(-c4cc5ccc4CCc4ccc(c(-c6ccc7[nH]c([C@@H]8C[C@@H]9CCCC[C@@H]9N8C(=O)[C@@H](NC(=O)OC)C(C)C)nc7c6)c4)CC5)ccc3[nH]2)C[C@@H]2CCCC[C@@H]21)C(C)C [odalasvir]
Treatment-related AE at least possibly related to the named drug [1, 9]: 9 (40.9) n (%)
Treatment-related AE at least possibly related to the named drug [1, 10]: 4 (36.4) n (%)
Treatment-related AE at least possibly related to the named drug ([1]; Overall (N = 33)): 13 (39.4) n (%)
Relationship between PR interval (absolute and change from baseline) and plasma concentrations [3]: no apparent relationship
Steady state judged from Ctrough levels ([2]; in vivo): steady-state conditions had not entirely been reached yet at Week 4
Terminal elimination half-life [4]: approximately 250 h
Potency [5]: picomolar
Activity (HCV GT3 [6]): nanomolar

Ctrough, max (between-patient variability) ([2]; human, in vivo): 6090 ng/mL
Ctrough, min (between-patient variability) ([2]; human, in vivo): 92.2 ng/mL
AUC(0-t) ([2]; human, in vivo, AUC24h, mean (SD)): 26900 ng·h/mL
Cmax ([2]; human, in vivo, Cmax, mean (SD)): 2200 ng/mL
Ctrough levels in Cohort 2 compared with Cohort 1 ([2]; in vivo): higher
SMILES: COc1ccc2c(O[C@@H]3C[C@H]4C(=O)N[C@]5(C(=O)NS(=O)(=O)C6CC6)C[C@H]5/C=C\CCCCN(C)C(=O)[C@@H]4C3)cc(-c3nc(C(C)C)cs3)nc2c1C [simeprevir]
Treatment-related AE at least possibly related to the named drug [1, 9]: 6 (27.3) n (%)
Treatment-related AE at least possibly related to the named drug [1, 10]: 2 (18.2) n (%)
Treatment-related AE at least possibly related to the named drug ([1]; Overall (N = 33)): 8 (24.2) n (%)
Steady state judged from Ctrough levels ([2]; human, in vivo): steady-state exposure had been reached by Week 2
Antiviral activity in infected patients [7]: demonstrated antiviral activity
Antiviral activity in infected patients (HCV GT3 [8]): no antiviral activity
Metabolism (CYP3A): metabolized by cytochrome P450 (CYP) 3A
Inhibition of CYP3A (CYP3A; intestinal (not hepatic) CYP3A): mild inhibitor
Inhibition of CYP1A2 (CYP1A2): mild, but not clinically relevant, inhibitor
